Results as given in patent US20110150833A1, “BENZOPYRANS AND ANALOGS AS RHO KINASE INHIBITORS” (The Scripps Research Institute, priority 2007, published 2011).

System: N2a cells
Assay: In vitro cell-based neurite length (N2a) assay
Settings: Mus musculus, neurite retraction induced by 5 uM LPA
Protocol: In Vitro Cell-Based Neurite Length (N2a) Assay
N2a cells are maintained in DMEM/FBS at 37 C and 5% CO2. For the experiment the cells were plated on a poly-D-lysine coated 96-well tissue culture plate. After attachment, cell differentiation was induced for 2 days by addition of 10 uM retinoic acid. Cells were treated for 1 h with a dilution of compounds in 0.3% DMSO final concentration before neurite retraction was induced by 5 uM LPA. Cells were stained for tubulin and nuclei and images were acquired on an INCell 1000 workstation. Images were analyzed using the developer toolbox and neurite length was quantitated.

**Q.** How did the IC50 turn out when `COc1ccc2c(c1)CC(C(=O)Nc1ccc(-c3cn[nH]c3)cc1)CO2` (stereo not shown) [Example 92, 6-methoxy-chroman-3-carboxylic acid [4-(1H-pyrazol-4-yl)-phenyl]-amide] was run?
**A.** 27 nM
